Test results: ChEMBL document CHEMBL1146608, “Design and synthesis of pseudo-symmetric HIV protease inhibitors containing a novel hydroxymethylcarbonyl (HMC)-hydrazide isostere” (Bioorg Med Chem Lett, 2003)
pEC50, pKi: −log10 of the molar value.

Legend:
[1] = biological target: Human immunodeficiency virus type 1 protease (Human immunodeficiency virus 1, UniProt Q72874); experiment: Inhibitory activity against HIV-1 protease
MT4 [2] = experiment: Cytotoxic effect against HIV-IIIB strain in MT-4 cells; assay type: functional; settings: Homo sapiens, read-out: TD50 (the source's name)
MT4 [3] = experiment: Inhibitory concentration against HIV-IIIB strain in MT-4 cells; assay type: functional, cell-based; settings: Homo sapiens
[4] = Selectivity index expressed as ratio of TD50 to EC50; assay type: functional

Structure (SMILES)	pKi [1]	CC50 (MT4 [2]) [nM]	pEC50 (MT4 [3])	Therapeutic index [4]
Cc1cccc(C)c1OCC(=O)NN(Cc1ccccc1)C(=O)[C@@H](O)[C@H](Cc1ccccc1)NC(=O)c1cccc(O)c1C	8.24	12	8.74	6.7
Cc1c(O)cccc1C(=O)N[C@@H](Cc1ccccc1)[C@H](O)C(=O)N(Cc1ccccc1)NC(=O)c1cccc(O)c1C	7.82	73	8.96	66
Cc1c(O)cccc1C(=O)N[C@@H](Cc1ccccc1)[C@@H](O)C(=O)N(Cc1ccccc1)NC(=O)c1cccc(O)c1C	9.80	91	8.80	57
CSC[C@H](NC(=O)OCc1cccc2cnccc12)C(=O)N[C@@H](Cc1ccccc1)[C@H](O)C(=O)N(Cc1ccccc1)NC(=O)COc1c(C)cccc1C	9.60	> 100	8.72	> 53
Cc1cccc(C)c1OCC(=O)N[C@@H](Cc1ccccc1)[C@H](O)C(=O)N(Cc1ccccc1)NC(=O)c1cccc(O)c1C	8.52	12	8.96	11
Cc1cc(N)cc(C)c1OCC(=O)N[C@@H](Cc1ccccc1)[C@H](O)C(=O)N(Cc1ccccc1)NC(=O)c1cccc(O)c1C	8.30	35	9.32	73
CSC[C@H](NC(=O)OCc1cccc2cnccc12)C(=O)N[C@@H](Cc1ccccc1)[C@H](O)C(=O)N(Cc1ccccc1)NC(=O)c1cccc(O)c1C	9.33	23	9.40	58
